Reference: US20230286983A1 (4E Therapeutics, Inc., priority 2020, published 2023)

Columns and labels:
[1] = test system: eIF4E phosphorylation at Serine 209 in the human embryonic kidney (HEK) 293 cell line; assay: eIF4E phosphorylation in HEK 293 cells (fluorescent plate reader); format: cell-based; settings: eIF4E phosphorylation at Serine 209, 2 hours exposure
Description: The ability of MNK inhibitors described herein to inhibit eIF4E phosphorylation at Serine 209 in the human embryonic kidney (HEK) 293 cell line was tested by exposing the cells to compound for 2 hours and then measuring eIF4E phosphorylation with a phosphorylation-specific antibody in a fluorescent plate reader. These experiments were done with HEK-293 cells plated on 96 well plates. Following treatment, cells were fixed with ice cold methanol for 10 min and then washed in 1× phosphate buffered saline (PBS) and the permeabilized with 0.02% Triton X-100 in 10% normal goat serum made up in PBS. Primary antibody was applied overnight at a concentration dilution of 1:2000 (p-eIF4E antibody from Cell Signaling ab76256). Following washing, cells were then exposed to secondary antibody conjugated to alexa-fluor 488 and then visualized on a Syngergy HTX plate reader. Fluorescence for p-eIF4E was measured and normalized to total DAPI fluorescence to determine the percentage of eIF4E phosphorylation in each well. Data were plotted in Graphpad Prism V8 to determine concentration-response effects and calculate IC50 values.

MNK1 = MNK1 (Homo sapiens, UniProt Q9BUB5); assay: MNK1 substrate phosphorylation assay; format: biochemical; settings: recombinant human kinase
Chain of MNK1 (Q9BUB5 whole entry): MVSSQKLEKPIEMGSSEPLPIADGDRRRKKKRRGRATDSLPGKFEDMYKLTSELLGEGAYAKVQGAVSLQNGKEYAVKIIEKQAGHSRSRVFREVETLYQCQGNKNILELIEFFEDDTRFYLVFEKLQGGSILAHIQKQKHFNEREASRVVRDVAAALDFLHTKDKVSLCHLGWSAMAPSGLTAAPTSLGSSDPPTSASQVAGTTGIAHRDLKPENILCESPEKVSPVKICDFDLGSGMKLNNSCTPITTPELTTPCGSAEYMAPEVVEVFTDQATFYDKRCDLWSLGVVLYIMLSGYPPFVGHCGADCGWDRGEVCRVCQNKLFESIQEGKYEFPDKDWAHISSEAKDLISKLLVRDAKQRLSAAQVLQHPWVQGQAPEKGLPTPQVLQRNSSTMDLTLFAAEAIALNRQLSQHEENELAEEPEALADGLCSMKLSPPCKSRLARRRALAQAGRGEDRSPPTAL

MNK2 = MNK2 (Homo sapiens, UniProt Q9HBH9); assay: MNK2 substrate phosphorylation assay; format: biochemical; settings: recombinant human kinase
Chain of MNK2 (Q9HBH9 whole entry): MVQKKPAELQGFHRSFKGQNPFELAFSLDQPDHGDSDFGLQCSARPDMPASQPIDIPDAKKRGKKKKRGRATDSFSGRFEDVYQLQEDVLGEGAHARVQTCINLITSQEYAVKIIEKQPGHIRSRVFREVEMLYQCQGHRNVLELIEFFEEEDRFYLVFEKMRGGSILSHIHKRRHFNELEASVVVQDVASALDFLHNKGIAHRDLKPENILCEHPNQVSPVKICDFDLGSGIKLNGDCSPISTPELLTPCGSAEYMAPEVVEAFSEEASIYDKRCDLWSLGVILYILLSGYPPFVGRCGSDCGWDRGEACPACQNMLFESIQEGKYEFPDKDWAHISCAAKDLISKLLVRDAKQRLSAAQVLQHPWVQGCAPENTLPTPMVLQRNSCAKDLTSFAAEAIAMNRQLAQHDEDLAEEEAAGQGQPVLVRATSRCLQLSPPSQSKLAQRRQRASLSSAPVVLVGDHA

[2] = Liver microsome stability, mouse; format: in vitro ADME; settings: mouse liver microsomes, Table 11b; for half-life: mouse, liver microsomes, read-out: T1/2
MDCK-MDR1 = MDCK-MDR1 permeability (blood brain barrier permeability); format: in vitro ADME, Canine; settings: 5 μM; for Papp A-B: Apical to basolateral transport; for Papp A-B / Papp B-A: average of two experiments; for Papp B-A: Basolateral to apical transport
P-gp (human MDR1, ABCB1) = assay: as above; format: in vitro ADME, Canine; settings: dog; for efflux ratio at 5 μM: MDCK-MDR1, 5 μM, read-out: Efflux ratio (ratio B-A/A-B); for Papp A→B at 5 μM: MDCK-MDR1, Apical to basolateral transport; for Papp A→B at 5 μM / Papp B→A at 5 μM: average of two experiments; for Papp B→A at 5 μM: MDCK-MDR1, Basolateral to apical transport
[3] = test system: eIF4E phosphorylation at Serine 209 in Karpas 299; assay: eIF4E phosphorylation in Karpas 299 cells (sandwich ELISA); format: cell-based; settings: Homo sapiens, read-out: Karpas 299 cell IC50
Description: The ability of MNK inhibitors described herein to inhibit eIF4E phosphorylation at Serine 209 in Karpas 299, Human Non-Hodgkin's Ki-positive Large Cell Lymphoma cell line was tested by sandwich enzyme linked immune-absorbance assay.

[4] = biological target: Cdc2-like kinase 4 (CLK4) (Homo sapiens, UniProt Q9HAZ1); assay: Off-target kinase screen CLK4; format: biochemical; settings: 1 μM test compound
Chain of Cdc2-like kinase 4 (CLK4) (Q9HAZ1 whole entry): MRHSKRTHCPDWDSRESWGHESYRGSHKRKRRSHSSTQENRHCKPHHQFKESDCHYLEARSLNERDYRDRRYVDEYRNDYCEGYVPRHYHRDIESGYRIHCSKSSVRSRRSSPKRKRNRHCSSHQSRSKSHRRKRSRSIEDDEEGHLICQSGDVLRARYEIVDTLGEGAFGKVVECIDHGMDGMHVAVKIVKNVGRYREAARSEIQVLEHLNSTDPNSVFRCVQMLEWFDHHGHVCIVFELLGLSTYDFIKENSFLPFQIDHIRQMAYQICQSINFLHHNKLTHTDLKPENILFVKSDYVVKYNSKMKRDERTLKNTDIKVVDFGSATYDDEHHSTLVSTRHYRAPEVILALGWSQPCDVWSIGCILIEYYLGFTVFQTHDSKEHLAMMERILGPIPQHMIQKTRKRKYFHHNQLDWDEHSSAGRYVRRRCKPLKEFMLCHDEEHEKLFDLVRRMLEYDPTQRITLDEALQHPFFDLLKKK
Source text: (§1) These kinases were chosen because they are the only known off-target hit kinases for eFT508. These assays were done using recombinant human kinases (CLK4, DRAK1 and PKG2) in a substrate phosphorylation assay. % activity remaining after MNK inhibitor treatment is indicated in Table 12.

[5] = Liver microsome stability, human; format: in vitro ADME; settings: liver microsomes; for half-life: read-out: Human liver microsomes t1/2
[6] = Liver microsome stability, rat; format: in vitro ADME; settings: Rat liver microsomes (#); for microsomal CLint: read-out: CLint rodent; for half-life: read-out: Rodent liver microsomes t1/2
[7] = biological target: T1, protein kinase G 2 (PKG2) (Homo sapiens, UniProt Q13237); assay: Off-target kinase screen PKG2; format: biochemical; settings: 1 μM test compound
T1 sequence (Q13237 1-762): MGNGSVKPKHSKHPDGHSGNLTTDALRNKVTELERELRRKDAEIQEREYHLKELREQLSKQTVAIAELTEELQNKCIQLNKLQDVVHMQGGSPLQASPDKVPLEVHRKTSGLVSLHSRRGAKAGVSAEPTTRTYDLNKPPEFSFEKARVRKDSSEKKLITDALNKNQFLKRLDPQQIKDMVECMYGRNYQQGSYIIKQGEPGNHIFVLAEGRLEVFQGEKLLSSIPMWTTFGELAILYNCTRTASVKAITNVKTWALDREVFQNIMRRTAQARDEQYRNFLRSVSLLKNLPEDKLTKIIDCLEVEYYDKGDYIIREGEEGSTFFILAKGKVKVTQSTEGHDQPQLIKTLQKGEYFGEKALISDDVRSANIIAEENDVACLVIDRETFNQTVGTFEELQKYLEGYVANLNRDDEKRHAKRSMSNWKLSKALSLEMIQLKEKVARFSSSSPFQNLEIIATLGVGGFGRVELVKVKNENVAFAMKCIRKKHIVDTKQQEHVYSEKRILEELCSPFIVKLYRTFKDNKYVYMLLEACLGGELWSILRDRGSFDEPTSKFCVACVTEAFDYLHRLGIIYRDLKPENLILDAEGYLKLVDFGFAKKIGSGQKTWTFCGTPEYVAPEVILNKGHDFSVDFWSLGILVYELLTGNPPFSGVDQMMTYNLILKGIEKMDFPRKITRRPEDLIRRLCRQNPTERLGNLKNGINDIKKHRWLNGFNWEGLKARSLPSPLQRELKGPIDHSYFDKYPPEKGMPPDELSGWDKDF
Source text: as §1

[8] = biological target: T2, death-associated protein kinase-related apoptosis-inducing protein kinase 1 (DRAK1) (Homo sapiens, UniProt Q9UEE5); assay: Off-target kinase screen DRAK1; format: biochemical; settings: 1 μM test compound
T2 sequence (Q9UEE5 1-414): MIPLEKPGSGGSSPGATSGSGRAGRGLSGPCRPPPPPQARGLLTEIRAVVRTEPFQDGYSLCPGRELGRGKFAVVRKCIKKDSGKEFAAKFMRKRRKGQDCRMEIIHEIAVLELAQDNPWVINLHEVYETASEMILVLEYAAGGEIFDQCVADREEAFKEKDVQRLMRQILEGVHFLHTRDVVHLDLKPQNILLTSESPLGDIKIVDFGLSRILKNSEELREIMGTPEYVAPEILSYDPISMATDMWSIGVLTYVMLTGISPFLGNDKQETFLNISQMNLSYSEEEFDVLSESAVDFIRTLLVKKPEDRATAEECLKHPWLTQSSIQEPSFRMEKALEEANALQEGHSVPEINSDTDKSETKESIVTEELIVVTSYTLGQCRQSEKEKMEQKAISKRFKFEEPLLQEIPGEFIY
Source text: as §1

IC50 (MNK1) [nM] | IC50 (MNK2) [nM] | Papp A-B (MDCK-MDR1) [×10⁻⁶ cm/s] | Papp B-A (MDCK-MDR1) [×10⁻⁶ cm/s] | T1/2 [2] [h] | Efflux ratio (ratio B-A/A-B) (MDCK-MDR1) | Papp A→B at 5 μM (P-gp (human MDR1, ABCB1)) [×10⁻⁶ cm/s] | Papp B→A at 5 μM (P-gp (human MDR1, ABCB1)) [×10⁻⁶ cm/s] | remaining activity at 1 µM [4] [%] | microsomal CLint [5] [µL/min/mg] | half-life [5] [h] | microsomal CLint [6] [µL/min/mg] | half-life [6] [h] | remaining activity at 1 µM [7] [%] | Structure (SMILES) | IC50 [1] [nM] | IC50 ([1]; Homo sapiens, HEK293, 2 h) [nM] | remaining activity at 1 µM [8] [%] | other results
26 | 4 | 24.9 | 46.4 | – | – | – | – | – | – | – | – | – | – | Cc1cc(Nc2cc(N)ncn2)c(=O)n2c1C(=O)NC21C[C@H]2COC[C@H]2C1 (single isomer, unassigned) [Compound 4ET-01-014A, 6′-((6-Aminopyrimidin-4-yl)amino)-8′-methyl-3a,4,6,6a-tetrahydro-1H,2′H,3H-spiro[cyclopenta[c]furan-5,3′-imidazo[1,5-a]pyridine]-1′,5′-dione] | 28.4 | – | – | half-life [2]: 4.5 h; efflux ratio at 5 μM (P-gp (human MDR1, ABCB1)): 1.9
24.5 | 4.6 | 2.4 | 5.8 | 7.17 | 2.4 | – | – | – | – | – | – | – | – | Cc1cc(Nc2cc(N)ncn2)c(=O)n2c1C(=O)NC21C[C@H]2COC[C@H]2C1 (single isomer, unassigned) [Compound 4ET-01-014B, 6′-((6-Aminopyrimidin-4-yl)amino)-8′-methyl-3a,4,6,6a-tetrahydro-1H,2′H,3H-spiro[cyclopenta[c]furan-5,3′-imidazo[1,5-a]pyridine]-1′,5′-dione] | 67.4 | – | – | –
35 | 1.32 | 2 | 24.5 | 1.2 | 12.4 | – | – | – | – | – | – | – | – | Cc1cc(Nc2cc(NC(=O)C3CC3)ncn2)c(=O)n2c1C(=O)NC21C[C@H]2CNC[C@H]2C1 (single isomer, unassigned) [Compound 4ET-03-050A, N-(6-((8′-Methyl-1′,5′-dioxo-1′,2,3,3a,4,5′,6,6a-octahydro-1H,2′H-spiro[cyclopenta[c]pyrrole-5,3′-imidazo[1,5-a]pyridin]-6′-yl)amino)pyrimidin-4-yl)cyclopropanecarboxamide] | 2.6 | – | – | –
40.9 | 6.84 | 0.7 | 0.9 | 7.07 | 1.3 | – | – | – | – | – | – | – | – | Cc1cc(Nc2cc(NC(=O)C3CC3)ncn2)c(=O)n2c1C(=O)NC21C[C@H]2CNC[C@H]2C1 (single isomer, unassigned) [Compound 4ET-03-050B, N-(6-((8′-Methyl-1′,5′-dioxo-1′,2,3,3a,4,5′,6,6a-octahydro-1H,2′H-spiro[cyclopenta[c]pyrrole-5,3′-imidazo[1,5-a]pyridin]-6′-yl)amino)pyrimidin-4-yl)cyclopropanecarboxamide] | 150 | – | – | –
4.71 | 0.5 | – | – | – | 6.6 | 12.1 | 80.6 | – | – | – | – | – | – | Cc1cc(Nc2cc(NC(=O)C3CC3)ncn2)c(=O)n2c1C(=O)NC21Cc2ccccc2[C@@H]1F (single isomer, unassigned) [Compound 4ET-03-052A, N-(6-((1′-Fluoro-8-methyl-1,5-dioxo-1,1′,3′,5-tetrahydro-2H-spiro[imidazo[1,5-a]pyridine-3,2′-inden]-6-yl)amino)pyrimidin-4-yl)cyclopropanecarboxamide] | – | 19.2 | – | half-life [2]: 1.83 h
104 | 8.2 | – | – | – | – | 0.1 | 0.3 | 93 | 2.56 | 9.02 | 9.57 | 2.42 | 100 | Cc1cc(Nc2cc(N)ncn2)c(=O)n2c1C(=O)NC21CCC(NS(C)(=O)=O)CC1 (centres unmarked) [Compound 4ET-01-004, N-(6′-((6-Aminopyrimidin-4-yl)amino)-8′-methyl-1′,5′-dioxo-1′,5′-dihydro-2′H-spiro[cyclohexane-1,3′-imidazo[1,5-a]pyridin]-4-yl)methanesulfonamide] | – | 33.6 | 76 | efflux ratio at 5 μM (P-gp (human MDR1, ABCB1)): 4.4
39.6 | 1.6 | – | – | – | – | – | – | 92 | 2.51 | 9.2 | 2.54 | 9.1 | 99 | Cc1cc(Nc2cc(NCCO)ncn2)c(=O)n2c1C(=O)NC21CCCCC1 [Compound 4ET-02-001, 6′-((6-((2-Hydroxyethyl)amino)pyrimidin-4-yl)amino)-8′-methyl-2′H-spiro[cyclohexane-1,3′-imidazo[1,5-a]pyridine]-1′,5′-dione] | – | 7.1 | 81 | IC50 [3]: 17 nM

Structure (SMILES) | IC50 (MNK1) [nM] | IC50 (MNK2) [nM] | Papp A-B (MDCK-MDR1) [×10⁻⁶ cm/s] | Papp B-A (MDCK-MDR1) [×10⁻⁶ cm/s] | T1/2 [2] [h] | Efflux ratio (ratio B-A/A-B) (MDCK-MDR1) | Papp A→B at 5 μM (P-gp (human MDR1, ABCB1)) [×10⁻⁶ cm/s] | Papp B→A at 5 μM (P-gp (human MDR1, ABCB1)) [×10⁻⁶ cm/s] | remaining activity at 1 µM [4] [%] | microsomal CLint [5] [µL/min/mg] | half-life [5] [h] | microsomal CLint [6] [µL/min/mg] | half-life [6] [h] | remaining activity at 1 µM [7] [%] | IC50 [1] [nM] | IC50 ([1]; Homo sapiens, HEK293, 2 h) [nM] | remaining activity at 1 µM [8] [%] | other results
Cc1cc(Nc2cc(N)ncn2)c(=O)n2c1C(=O)NC2(C)C [Compound 4ET-01-003, 6-((6-Aminopyrimidin-4-yl)amino)-3,3,8-trimethyl-2,3-dihydroimidazo[1,5-a]pyridine-1,5-dione] | – | 2 | – | – | – | – | 9.1 | 13.3 | 91 | 1.93 | 12 | 2.33 | 9.93 | 88 | – | – | 65 | IC50 [3]: 35 nM; IC50 ([1]; Homo sapiens, HEK293): 10.5 nM
